Active and inactive are the calls of the source. No cut-off for these calls is given here.
Tests used:
[1] = system: MDA-MB-468; assay: Growth inhibition of human MDA-MB-468 cells assessed as cell viability measured after 4 days by WST8 assay; format: functional, cell-based; conditions: MDA-MB-468, 96 h
[2] = system: BT-549; assay: Growth inhibition of human BT-549 cells assessed as cell viability measured after 4 days by WST8 assay; format: functional, cell-based; conditions: BT-549, 96 h
[3] = system: MDA-MB-231; assay: Growth inhibition of human MDA-MB-231 cells assessed as cell viability measured after 4 days by WST8 assay; format: functional, cell-based; conditions: MDA-MB-231, 96 h
[4] = molecular target: Protein cereblon/Cyclin-dependent kinase 9 (Homo sapiens) (UniProt P50750+Q96SW2); assay: Protac activity at CRBN/CDK9 in human MDA-MB-231 cells assessed as induction of degradation of CDK9 pretreated with MLN4924 at 500 nM incubated for 8 hrs by Western blot analysis; format: cell-based
[5] = molecular target: Protein cereblon/Cyclin-dependent kinase 1 (Homo sapiens) (UniProt P06493+Q96SW2); assay: Protac activity at CRBN/CDK1 in human MDA-MB-231 cells assessed as induction of degradation of CDK1 at 100 to 500 nM incubated for 4 to 8 hrs by Western blot analysis; format: cell-based; conditions: dose 100-500 nM, time 4-8 hrs
[6] = molecular target: Protein cereblon/Cyclin-dependent kinase 2 (Homo sapiens) (UniProt P24941+Q96SW2); assay: Protac activity at CRBN/CDK2 in human MDA-MB-231 cells assessed as induction of degradation of CDK2 at 100 to 500 nM incubated for 4 to 8 hrs by Western blot analysis; format: cell-based; conditions: dose 100-500 nM, time 4-8 hrs
[7] = molecular target: Protein cereblon/Cyclin-dependent kinase 4 (Homo sapiens) (UniProt P11802+Q96SW2); assay: Protac activity at CRBN/CDK4 in human MDA-MB-231 cells assessed as induction of degradation of CDK4 at 100 to 500 nM incubated for 4 to 8 hrs by Western blot analysis; format: cell-based; conditions: dose 100-500 nM, time 4-8 hrs
[8] = molecular target: Protein cereblon/Cyclin-dependent kinase 5 (Homo sapiens) (UniProt Q00535+Q96SW2); assay: Protac activity at CRBN/CDK5 in human MDA-MB-231 cells assessed as induction of degradation of CDK5 at 100 to 500 nM incubated for 4 to 8 hrs by Western blot analysis; format: cell-based; conditions: dose 100-500 nM, time 4-8 hrs
[9] = molecular target: Protein cereblon/Cyclin-dependent kinase 6 (Homo sapiens) (UniProt Q00534+Q96SW2); assay: Protac activity at CRBN/CDK6 in human MDA-MB-231 cells assessed as induction of degradation of CDK6 at 100 to 500 nM incubated for 4 to 8 hrs by Western blot analysis; format: cell-based; conditions: dose 100-500 nM, time 4-8 hrs
[10] = molecular target: Protein cereblon/Cyclin-dependent kinase 7 (Homo sapiens) (UniProt P50613+Q96SW2); assay: Protac activity at CRBN/CDK7 in human MDA-MB-231 cells assessed as induction of degradation of CDK7 at 100 to 500 nM incubated for 4 to 8 hrs by Western blot analysis; format: cell-based; conditions: dose 100-500 nM, time 4-8 hrs
[11] = molecular target: Protein cereblon/Eukaryotic peptide chain release factor GTP-binding subunit ERF3A (Homo sapiens) (UniProt Q96SW2+P15170); assay: Protac activity at CRBN/GSPT1 in human MDA-MB-231 cells assessed as induction of degradation of GSPT1 incubated for 4 to 8 hrs by Western blot analysis; format: cell-based; conditions: time 4-8 hrs
[12] = system: Tumour; assay: Induction of CDK9 degradation in tumor of human MDA-MB-231 cells xenografted in BALB/c mouse model at 0.15 mM intratumoral injection measured after 16 hrs by Western blot analysis relative to control; format: functional, Neoplasm
[13] = system: Tumour; assay: Induction of CDK7 degradation in tumor of human MDA-MB-231 cells xenografted in BALB/c mouse model at 0.15 mM intratumoral injection measured after 16 hrs by Western blot analysis relative to control; format: functional, tissue-based; conditions: Neoplasm
[14] = system: MDA-MB-231; assay: Antitumor activity against human MDA-MB-231 cells xenografted in BALB/c mouse model assessed as decrease in tumor volume at 2.5 mg/kg, intratumoral injection daily for 7 days relative to control; format: functional; parameters: scale not given: the % may be the effect or the level left; conditions: time 7 day
[15] = system: MDA-MB-231; assay: Antitumor activity against human MDA-MB-231 cells xenografted in BALB/c mouse model assessed as decrease in tumor volume at 5 mg/kg, intratumoral injection daily for 7 days relative to control; format: functional; parameters: scale not given: the % may be the effect or the level left; conditions: time 7 day
[16] = Toxicity in BALB/c mouse xenografted with human MDA-MB-231 cells assessed as body weight loss at 2.5 mg/kg, intratumoral injection daily for 7 days; format: organism-based; conditions: in vivo, other, 168 h, time 7 day
[17] = Toxicity in BALB/c mouse xenografted with human MDA-MB-231 cells assessed as body weight loss at 5 mg/kg, intratumoral injection daily for 7 days; format: organism-based; conditions: in vivo, other, 168 h, time 7 day
[18] = system: MDA-MB-231; assay: Antitumor activity against human MDA-MB-231 cells xenografted in BALB/c mouse model assessed as induction of CDK9 degradation in tumor tissue at 2.5 mg/kg, intratumoral injection daily for 7 days by Western blot analysis relative to control; format: functional, organism-based; conditions: time 7.0 day
[19] = system: MDA-MB-231; assay: Antitumor activity against human MDA-MB-231 cells xenografted in BALB/c mouse model assessed as induction of CDK9 degradation in tumor tissue at 5 mg/kg, intratumoral injection daily for 7 days by Western blot analysis relative to control; format: functional, organism-based; conditions: time 7.0 day
[20] = system: Tumour; assay: Effect on CDK7 protein level in tumor of BALB/c mouse xenografted with human MDA-MB-231 cells at 2.5 to 5 mg/kg, intratumoral injection daily for 7 days by Western blot analysis relative to control; format: functional, organism-based; conditions: Neoplasm, dose 2.5-5 mg/kg, time 7.0 day
[21] = system: Tumour; assay: Reduction in CDK9 protein level in tumor of BALB/c mouse xenografted with human MDA-MB-231 cells at 2.5 mg/kg, intratumoral injection daily for 7 days by immunohistochemistry staining analysis relative to control; format: functional; conditions: MDA-MB-231, Neoplasm, 168 h, time 7 day
[22] = system: Tumour; assay: Reduction in CDK9 protein level in tumor of BALB/c mouse xenografted with human MDA-MB-231 cells at 5 mg/kg, intratumoral injection daily for 7 days by immunohistochemistry staining analysis relative to control; format: functional; conditions: MDA-MB-231, Neoplasm, 168 h, time 7 day
[23] = system: Tumour; assay: Reduction in MYC protein level in tumor of BALB/c mouse xenografted with human MDA-MB-231 cells at 2.5 mg/kg, intratumoral injection daily for 7 days by immunohistochemistry staining analysis relative to control; format: functional; conditions: MDA-MB-231, Neoplasm, 168 h, time 7 day
[24] = system: Tumour; assay: Reduction in MYC protein level in tumor of BALB/c mouse xenografted with human MDA-MB-231 cells at 5 mg/kg, intratumoral injection daily for 7 days by immunohistochemistry staining analysis relative to control; format: functional; conditions: MDA-MB-231, Neoplasm, 168 h, time 7 day
[25] = system: Tumour; assay: Reduction in CDK7 protein level in tumor of BALB/c mouse xenografted with human MDA-MB-231 cells at 2.5 mg/kg, intratumoral injection daily for 7 days by immunohistochemistry staining analysis relative to control; format: functional; conditions: MDA-MB-231, Neoplasm, 168 h, time 7 day
[26] = system: Tumour; assay: Reduction in CDK7 protein level in tumor of BALB/c mouse xenografted with human MDA-MB-231 cells at 5 mg/kg, intratumoral injection daily for 7 days by immunohistochemistry staining analysis relative to control; format: functional; conditions: MDA-MB-231, Neoplasm, 168 h, time 7 day
[27] = system: Tumour; assay: Reduction in Ki-67 protein level in tumor of BALB/c mouse xenografted with human MDA-MB-231 cells at 2.5 mg/kg, intratumoral injection daily for 7 days by immunohistochemistry staining analysis relative to control; format: functional; conditions: MDA-MB-231, Neoplasm, 168 h, time 7 day
[28] = system: Tumour; assay: Reduction in Ki-67 protein level in tumor of BALB/c mouse xenografted with human MDA-MB-231 cells at 5 mg/kg, intratumoral injection daily for 7 days by immunohistochemistry staining analysis relative to control; format: functional; conditions: MDA-MB-231, Neoplasm, 168 h, time 7 day

Chain of Protein cereblon/Cyclin-dependent kinase 1 (Homo sapiens) (P06493 whole entry, looked up): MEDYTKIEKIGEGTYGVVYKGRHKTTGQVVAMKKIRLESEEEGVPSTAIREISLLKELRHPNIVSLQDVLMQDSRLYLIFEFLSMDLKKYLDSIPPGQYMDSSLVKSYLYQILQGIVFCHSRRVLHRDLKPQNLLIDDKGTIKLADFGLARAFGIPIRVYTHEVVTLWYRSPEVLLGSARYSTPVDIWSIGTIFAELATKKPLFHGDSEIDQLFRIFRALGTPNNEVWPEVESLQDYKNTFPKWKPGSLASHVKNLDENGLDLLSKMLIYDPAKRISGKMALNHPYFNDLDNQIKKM
Chain of Protein cereblon/Cyclin-dependent kinase 1 (Homo sapiens) (Q96SW2 whole entry, looked up): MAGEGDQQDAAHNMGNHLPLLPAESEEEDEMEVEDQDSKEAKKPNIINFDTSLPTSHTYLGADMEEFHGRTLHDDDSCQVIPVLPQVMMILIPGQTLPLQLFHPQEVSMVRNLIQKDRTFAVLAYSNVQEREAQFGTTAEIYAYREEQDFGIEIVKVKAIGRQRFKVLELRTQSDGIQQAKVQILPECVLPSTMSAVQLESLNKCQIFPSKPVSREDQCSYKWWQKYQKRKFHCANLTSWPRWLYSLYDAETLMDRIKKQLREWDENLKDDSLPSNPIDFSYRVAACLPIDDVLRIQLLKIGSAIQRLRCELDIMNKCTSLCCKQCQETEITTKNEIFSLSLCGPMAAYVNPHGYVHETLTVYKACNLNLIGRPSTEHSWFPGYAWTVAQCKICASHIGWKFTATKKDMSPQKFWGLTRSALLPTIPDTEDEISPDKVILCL
Chain of Protein cereblon/Cyclin-dependent kinase 9 (Homo sapiens) (P50750 whole entry, looked up): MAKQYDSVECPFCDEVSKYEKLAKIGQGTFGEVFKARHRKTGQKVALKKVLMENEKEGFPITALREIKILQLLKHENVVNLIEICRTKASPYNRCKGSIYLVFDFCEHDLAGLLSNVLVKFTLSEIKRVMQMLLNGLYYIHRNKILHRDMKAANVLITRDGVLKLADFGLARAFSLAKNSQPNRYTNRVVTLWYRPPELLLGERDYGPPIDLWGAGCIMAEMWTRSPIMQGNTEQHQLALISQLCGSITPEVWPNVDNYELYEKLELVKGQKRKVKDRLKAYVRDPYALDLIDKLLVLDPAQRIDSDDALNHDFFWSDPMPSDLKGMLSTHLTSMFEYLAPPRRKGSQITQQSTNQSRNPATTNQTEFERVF
Chain of Protein cereblon/Cyclin-dependent kinase 9 (Homo sapiens) (Q96SW2 whole entry, looked up): as the sequence (Q96SW2 whole entry, looked up) above
Chain of Protein cereblon/Cyclin-dependent kinase 6 (Homo sapiens) (Q00534 whole entry, looked up): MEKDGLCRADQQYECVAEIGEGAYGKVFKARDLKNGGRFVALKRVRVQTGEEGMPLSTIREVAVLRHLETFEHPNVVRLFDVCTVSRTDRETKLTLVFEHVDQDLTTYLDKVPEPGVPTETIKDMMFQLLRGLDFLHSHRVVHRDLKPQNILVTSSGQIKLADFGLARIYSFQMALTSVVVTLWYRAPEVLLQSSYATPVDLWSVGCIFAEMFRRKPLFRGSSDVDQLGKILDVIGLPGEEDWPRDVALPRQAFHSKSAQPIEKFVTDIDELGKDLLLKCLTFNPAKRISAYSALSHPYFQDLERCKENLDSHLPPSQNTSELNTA
Chain of Protein cereblon/Cyclin-dependent kinase 6 (Homo sapiens) (Q96SW2 whole entry, looked up): as the sequence (Q96SW2 whole entry, looked up) above
Chain of Protein cereblon/Cyclin-dependent kinase 5 (Homo sapiens) (Q00535 whole entry, looked up): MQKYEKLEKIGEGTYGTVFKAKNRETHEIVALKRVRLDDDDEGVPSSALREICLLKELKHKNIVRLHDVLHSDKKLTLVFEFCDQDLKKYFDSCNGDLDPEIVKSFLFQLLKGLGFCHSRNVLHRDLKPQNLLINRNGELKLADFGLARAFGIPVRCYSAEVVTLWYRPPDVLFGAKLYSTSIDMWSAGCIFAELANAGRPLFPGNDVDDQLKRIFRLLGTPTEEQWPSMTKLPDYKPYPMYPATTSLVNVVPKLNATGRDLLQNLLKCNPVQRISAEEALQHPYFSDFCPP
Chain of Protein cereblon/Cyclin-dependent kinase 5 (Homo sapiens) (Q96SW2 whole entry, looked up): as the sequence (Q96SW2 whole entry, looked up) above
Chain of Protein cereblon/Cyclin-dependent kinase 7 (Homo sapiens) (P50613 whole entry, looked up): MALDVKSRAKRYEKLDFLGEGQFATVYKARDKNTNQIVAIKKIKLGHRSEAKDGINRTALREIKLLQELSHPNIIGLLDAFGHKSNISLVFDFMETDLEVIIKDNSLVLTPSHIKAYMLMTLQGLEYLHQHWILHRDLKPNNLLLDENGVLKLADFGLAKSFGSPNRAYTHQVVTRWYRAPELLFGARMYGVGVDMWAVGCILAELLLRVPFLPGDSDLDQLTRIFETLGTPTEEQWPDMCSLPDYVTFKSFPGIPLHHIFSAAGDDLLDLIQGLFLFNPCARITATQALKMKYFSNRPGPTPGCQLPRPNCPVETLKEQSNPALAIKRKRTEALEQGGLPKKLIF
Chain of Protein cereblon/Cyclin-dependent kinase 7 (Homo sapiens) (Q96SW2 whole entry, looked up): as the sequence (Q96SW2 whole entry, looked up) above
Chain of Protein cereblon/Eukaryotic peptide chain release factor GTP-binding subunit ERF3A (Homo sapiens) (P15170 whole entry, looked up): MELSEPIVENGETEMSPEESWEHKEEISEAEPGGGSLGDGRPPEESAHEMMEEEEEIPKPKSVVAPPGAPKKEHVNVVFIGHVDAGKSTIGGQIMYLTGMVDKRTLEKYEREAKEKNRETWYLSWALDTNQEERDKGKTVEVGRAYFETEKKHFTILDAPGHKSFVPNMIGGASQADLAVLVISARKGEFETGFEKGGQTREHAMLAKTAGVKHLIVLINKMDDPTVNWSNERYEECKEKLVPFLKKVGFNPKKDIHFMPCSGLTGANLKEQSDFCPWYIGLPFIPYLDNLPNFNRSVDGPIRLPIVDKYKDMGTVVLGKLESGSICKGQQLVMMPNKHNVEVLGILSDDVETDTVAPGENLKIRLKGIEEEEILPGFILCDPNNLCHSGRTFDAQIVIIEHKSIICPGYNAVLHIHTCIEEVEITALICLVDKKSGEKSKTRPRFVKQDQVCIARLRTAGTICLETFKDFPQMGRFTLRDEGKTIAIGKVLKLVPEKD
Chain of Protein cereblon/Eukaryotic peptide chain release factor GTP-binding subunit ERF3A (Homo sapiens) (Q96SW2 whole entry, looked up): as the sequence (Q96SW2 whole entry, looked up) above
Chain of Protein cereblon/Cyclin-dependent kinase 4 (Homo sapiens) (P11802 2-303 limits assumed): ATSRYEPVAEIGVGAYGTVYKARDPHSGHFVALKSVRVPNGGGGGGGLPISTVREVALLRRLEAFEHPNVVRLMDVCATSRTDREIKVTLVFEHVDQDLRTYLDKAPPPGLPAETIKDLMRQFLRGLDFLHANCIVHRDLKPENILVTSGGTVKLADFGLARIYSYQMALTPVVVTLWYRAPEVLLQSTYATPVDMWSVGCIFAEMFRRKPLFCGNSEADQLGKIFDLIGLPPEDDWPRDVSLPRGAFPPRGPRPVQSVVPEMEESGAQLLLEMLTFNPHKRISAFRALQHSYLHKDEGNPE
Chain of Protein cereblon/Cyclin-dependent kinase 4 (Homo sapiens) (Q96SW2 whole entry partner): as the sequence (Q96SW2 whole entry, looked up) above

CC[C@@H](CO)Nc1cc(NCc2ccc(NC(=O)N3CCN(CCCCCc4cccc5c4CN(C4CCC(=O)NC4=O)C5=O)CC3)cc2)n2ncc(C(C)C)c2n1 (stereo partly drawn)
IC50 [1]: 15 µM | IC50 [2]: 13.6 µM | IC50 [3]: 3.9 µM | Activity [4]: Active | Activity [5]: inactive | Activity [6]: inactive | Activity [7]: inactive | Activity [8]: inactive | Activity [9]: inactive | Activity [10]: inactive | Activity [11]: inactive | Activity [12]: 54% | Activity [13]: inactive | Activity [14]: 50% | Activity [15]: 50% | Activity [16]: 12.8% | Activity [17]: 13.1% | Activity [18]: Active | Activity [19]: Active | Activity [20]: inactive | inhibition in vivo at 2.5 mg/kg [21]: 62.3% | inhibition in vivo at 5 mg/kg [22]: 90.8% | inhibition in vivo at 2.5 mg/kg [23]: 41% | inhibition in vivo at 5 mg/kg [24]: 76.7% | inhibition in vivo at 2.5 mg/kg [25]: 4% | inhibition in vivo at 5 mg/kg [26]: 12.4% | inhibition in vivo at 2.5 mg/kg [27]: 32.8% | inhibition in vivo at 5 mg/kg [28]: 69.7%
